Results on eight compounds are retold here after patent US10226449B2, “Heterocyclic modulators of lipid synthesis and combinations thereof” (priority 2013, dated 2019).

One data set deals with PANC-1 xenograft tumors. Briefly: PANC-1 pancreatic xenograft tumor growth inhibition with gemcitabine. It counts as in vivo, BALB/c-nude mice.
For data set [1] the following is noted: mouse, in vivo.
Experimental: (§1) The day of tumor cell inoculation is denoted as day 0. Drug treatment was initiated when the mean tumor size reached 149 mm^3 (day 15). […] Mice were assigned into treatment groups using a randomized block design based upon their tumor volumes. […] Tumor sizes were measured twice weekly in two dimensions using a caliper, and the volumes were expressed in mm^3 using the formula: V=0.5 a×b2 where a and b were the long and short diameters of the tumor, respectively. The study was terminated 6 hours post the 18th Qd dose on day 32 after tumor inoculation. Tumor growth inhibition (TGI) was calculated as the percentage of tumor growth, relative to tumor size at the start of treatment, in drug-treated groups compared to vehicle-treated groups. The Mann-Whitney U test was used to assess statistical significance of the mean tumor size between drug and vehicle-treated groups.
Data set [2] in a line: Tolerability in the single agent PANC-1 xenograft study. The note with it: 30/20 mg/kg Q5d; 18-day study; PANC-1 xenograft mice, 10 per group.
Experimental: as §1
The subject of the next data set is HCV1b replicon. Briefly: HCV1b replicon antiviral assay (luciferase reporter). Format: cell-based. The following applies: Hepatitis C virus; HCV genotype 1b replicon; read-out: HCV GT1b EC50. A general note: Replicon systems follow genome replication, usually without infectious particles.
Another data set deals with CALU-6 xenograft tumors. Briefly: CALU-6 lung xenograft tumor growth inhibition with paclitaxel. The note with it: for TGI vs. Vehicle: day 21 post treatment start. It counts as in vivo, BALB/c-nude mice.
The subject of a further data set is OVCAR-8 xenograft tumors. Briefly: OVCAR-8 ovarian xenograft tumor growth inhibition with paclitaxel. Format: in vivo, BALB/c-nude mice. The note with it: day 21 post treatment start.
The test system of data set [3] is COLO-205 xenograft tumors. Nature of the data set: COLO-205 colon xenograft tumor growth inhibition with irinotecan.
Experimental: (§2) The day of tumor cell inoculation is denoted as day 0. After inoculation, the animals were checked daily for morbidity and mortality. At the time of routine monitoring, the animals were checked for any effects of tumor growth and treatments on normal behavior such as mobility, visual estimation of food and water consumption, body weight gain/loss (body weights were measured twice weekly), eye/hair matting and any other abnormal signs. […] Mice were assigned into treatment groups using a randomized block design based upon their tumor volumes. […] Tumor sizes were measured twice weekly in two dimensions using a caliper, and the volumes were expressed in mm^3 using the formula: V=0.5*(a*b^2) where a and b were the long and short diameters of the tumor, respectively. The study was terminated 6 hours post the last dose 17-28 days after treatment initiation. Tumor growth inhibition (TGI) was calculated as the percentage of tumor growth, relative to tumor size at the start of treatment, in drug-treated groups compared to vehicle-treated groups. The Mann-Whitney U test was used to assess statistical significance of the mean tumor size between drug and vehicle-treated groups
For data set [4] the following is noted: mouse, in vivo. This is another data set of the same source.
Experimental: as §2
The conditions of data set [5]: mouse, in vivo. The source holds these as a separate data set.
Experimental: as §2
For data set [6] the following is noted: mouse, in vivo. The source holds these as a separate data set.
Experimental: as §2
The mark [7] stands for this setting: irinotecan 10 mg/kg ip Q4d, single agent.

pEC50: −log10 of the molar value. Read-outs that look alike come from different tables or passages of the source.

Experimental for CALU-6 xenograft tumors: as §2
The study was terminated 21 days after initiation of treatment.
Experimental for HCV1b replicon: The antiviral activities of the compounds were assessed using the HCV1b replicon system. […] HCV RNA replicon levels were assessed using the Bright-Glo™ Luciferase Assay System (Promega) to measure replicon-derived Luc activity.
Experimental for OVCAR-8 xenograft tumors: as §2
The study was terminated 28 days after initiation of treatment.
Experimental for PANC-1 xenograft tumors: as §2

In the case of `Nc1ccn([C@@H]2O[C@H](CO)[C@@H](O)C2(F)F)c(=O)n1` [Gemcitabine, gemcitabine, reference compound], in the data set on PANC-1 xenograft tumors (gemcitabine 10 mg/kg ip, single agent), the “TGI vs. Vehicle” value is reported as 31%.
Regarding `C=C1C(=O)O[C@@H](CCCCCCCC)[C@@H]1C(=O)O` (relative stereo) [Compound C75, trans-4-methylene-2-octyl-5-oxotetrahydrofuran-3-carboxylic acid], in data set [1], the “tolerability in PANC-1 xenograft tumor-bearing mice” value was “drug-induced weight loss and toxicity”. The “mice died from drug-related toxicity” value in [2] is given as “Six of the ten mice in the C75 treatment group died”.
Take `Cc1ccc(C(=O)N2CCC(c3ccc(C#N)cc3)CC2)cc1-c1[nH]nc(Cl)c1C` [Compound 253, 4-(1-(3-(3-Chloro-4-methyl-1H-pyrazol-5-yl)-4-methylbenzoyl)piperidin-4-yl)benzonitrile]: in the data set on HCV1b replicon, the pEC50 was 6.66.
`CC(=O)O[C@H]1C(=O)[C@@]2(C)[C@H]([C@H](OC(=O)c3ccccc3)[C@]3(O)C[C@H](OC(=O)[C@H](O)[C@@H](NC(=O)c4ccccc4)c4ccccc4)C(C)=C1C3(C)C)[C@]1(OC(C)=O)CO[C@@H]1C[C@@H]2O` [Paclitaxel, paclitaxel, reference compound]: the results for the “TGI vs. Vehicle” value in the data set on CALU-6 xenograft tumors (paclitaxel 10 mg/kg ip Q4d) and in the data set with OVCAR-8 xenograft tumors (paclitaxel 10 mg/kg ip Q4d) were 63% and 83%, respectively.
Take `CCc1c2c(nc3ccc(OC(=O)N4CCC(N5CCCCC5)CC4)cc13)-c1cc3c(c(=O)n1C2)COC(=O)[C@]3(O)CC` [Irinotecan, irinotecan, reference compound]: under setting [7], the “Body Weight Change” value is reported as −10.2%. The same compound showed a body weight loss (single agent irinotecan group, 10 mg/kg Q4d) of 10.2%. The “TGI vs. Vehicle” value in data set [3] (setting [7]) worked out at 57%.
As for `CCN(CC)c1cc(C)c(C(=O)N2CCC(c3ccc(C#N)cc3)CC2)cc1-c1nnc(C)[nH]1` [Compound 129, 4-(1-(4-(diethylamino)-2-methyl-5-(5-methyl-4H-1,2,4-triazol-3-yl)benzoyl)piperidin-4-yl)benzonitrile], the pEC50 with HCV1b replicon was 5.67.
In the case of `Cc1cc(C)c(-c2[nH]c(C3CCOCC3)nc2C)cc1C(=O)N1CC(F)(c2ccc(C#N)cc2)C1` [Compound 167, 4-(1-(2,4-Dimethyl-5-(4-methyl-2-(tetrahydro-2H-pyran-4-yl)-1H-imidazol-5-yl)benzoyl)-3-fluoroazetidin-3-yl)benzonitrile], the pEC50 with HCV1b replicon was 7.60.
As for `Cc1cc(C)c(-c2[nH]nc(C)c2C)cc1C(=O)N1CC(c2ccc(C#N)cc2)C1` [Compound 242, 4-(1-(5-(3,4-Dimethyl-1H-pyrazol-5-yl)-2,4-dimethylbenzoyl)azetidin-3-yl)benzonitrile], the “TGI vs. Vehicle” value in the data set on CALU-6 xenograft tumors (Compound 242 60 mg/kg po Qd) stood at 14%; in the data set with CALU-6 xenograft tumors (Compound 242 100 mg/kg po Qd), 0%; in [3] (Compound 242 30 mg/kg po Qd for 20 days) it was 6%; with PANC-1 xenograft tumors (Compound 242 30 mg/kg po Qd for 18 days) it was 9%; in the data set with OVCAR-8 xenograft tumors (Compound 242 30 mg/kg po Qd), 46%; with OVCAR-8 xenograft tumors (Compound 242 100 mg/kg po Qd), 74%. For the same compound, in the data set with CALU-6 xenograft tumors (Compound 242 single agent at 30, 60, or 100 mg/kg once daily for 21 days), the “tumor growth inhibition, range over dose groups” value is listed as 0-19%. The “tolerability in OVCAR-8 xenograft tumor-bearing mice” value in data set [4] is recorded as “well tolerated as a single or combination agent”. For the same compound, where the note is “mouse, in vivo, po, 100 mg/kg”, the “Body Weight Change” value is −12.0%. For the same compound, the “tolerability in PANC-1 xenograft tumor-bearing mice” value in data set [5] was “well tolerated as a single or combination agent”. In addition, in data set [6], the “tolerability in CALU-6 xenograft tumor-bearing mice” value is recorded as “well tolerated as a single or combination agent”.

The pEC50 is −log10 of the EC50, conventionally taken in molar units.
